For orientation: inhibition means how much of the control response was suppressed.

A value given as a limit tells only on which side of the number the result lay.

One test concerns the target T1, P2X7 receptor (Homo sapiens, UniProt Q99572).
T1 construct: host or cells: THP-1 cells differentiated with LPS and IFN-γ
T1 sequence (Q99572 1-595): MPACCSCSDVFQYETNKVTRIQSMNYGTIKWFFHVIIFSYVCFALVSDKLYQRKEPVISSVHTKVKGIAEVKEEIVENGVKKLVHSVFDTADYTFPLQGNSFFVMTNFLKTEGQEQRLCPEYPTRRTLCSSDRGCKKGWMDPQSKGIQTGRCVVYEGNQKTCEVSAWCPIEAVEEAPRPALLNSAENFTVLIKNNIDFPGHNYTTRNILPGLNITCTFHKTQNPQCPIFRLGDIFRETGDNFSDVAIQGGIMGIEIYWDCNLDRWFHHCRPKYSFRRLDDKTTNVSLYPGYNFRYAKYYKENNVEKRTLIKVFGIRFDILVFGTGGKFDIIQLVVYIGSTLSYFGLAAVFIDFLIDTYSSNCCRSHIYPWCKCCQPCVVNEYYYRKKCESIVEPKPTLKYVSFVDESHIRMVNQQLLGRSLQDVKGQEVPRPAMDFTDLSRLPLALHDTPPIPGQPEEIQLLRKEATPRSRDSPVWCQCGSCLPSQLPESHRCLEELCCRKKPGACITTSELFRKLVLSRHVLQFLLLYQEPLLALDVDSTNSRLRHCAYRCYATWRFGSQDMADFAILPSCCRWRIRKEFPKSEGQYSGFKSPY
Nature of the test: IL-1β release assay (BzATP-stimulated, LPS/IFN-γ differentiated THP-1 cells, ELISA). The note with it: at 0.1 μM (asterisk symbols). The class given is cell-based. The protocol:
THP-1 cells (ATCC Cat # 285-IF-100) are plated in 96 well plates at a concentration of 200,000 cells per well and allowed to differentiate in RPMI-1640 media (ATCC Cat # 30-2001) containing 10% FBS, 100 IU/mL penicillin, 100 ug/mL streptomycin, 100 ng/mL LPS and 100 ng/mL IFN-γ for 16 hours. Following differentiation, the cells are treated for an additional 2 hours in RPMI-1640 media containing 100 IU/mL penicillin, 100 ug/mL streptomycin and fresh LPS at 100 ng/mL. The cells are then pretreated for 30 minutes with the compound of interest at the appropriate concentration in RPMI media containing 100 IU/mL penicillin, 100 ug/mL streptomycin. Following the pretreatment 2′,3′-O-(4-benzoylbenzoyl)-adenosine 5′-triphosphate (Sigma Aldrich Cat# B6396) is added to a final concentration of 250 uM and the cells incubated for an additional 45 minutes. 30 uL of cell supernatant is then collected and […] levels determined via ELISA (R&D systems Cat. # HSLB50) according to manufacturer's recommendations using the Tecan Safire plate reader. Background adjusted IL-1β levels of drug treated and non-treated cells are used to calculate the percent inhibition.
For orientation: ELISA stands for enzyme-linked immunosorbent assay.
With `CN1CCCC1CCn1ccc2c(NC(=O)CC34CC5CC(CC(C5)C3)C4)cccc2c1=O` (centres unmarked) [Compound 788], the inhibition at 0.1 µM is at least 75%.
In turn, `CC(C)C(CO)n1ccc2c(NC(=O)CC34CC5CC(CC(C5)C3)C4)cccc2c1=O` (centres unmarked) [Compound 887] displayed an inhibition at 0.1 µM of at least 75%.
In turn, `CC12CC3CC(C)(C1)CC(CC(=O)Nc1cccc4c1CCN(Cc1ccc5c(c1)OCO5)C4=O)(C3)C2` [Compound 814] came in with an inhibition at 0.1 µM of at least 75%.
Still for that read-out and setting: the result for `O=C(CC12CC3CC(CC(C3)C1)C2)Nc1cccc2c(=O)n(C[C@H]3CCCO3)ccc12` [Compound 771] reads at least 75%; that for `Cc1cnc(CN2CCc3c(NC(=O)CC45CC6CC(C)(CC(C)(C6)C4)C5)cccc3C2=O)cn1` [Compound 778], at least 75%; that for `CCN(CC)CCn1ccc2c(NC(=O)CC34CC5CC(CC(C5)C3)C4)cccc2c1=O` [Compound 870], at least 75%.
Consider `CN1CCN(CCCn2ccc3c(NC(=O)CC45CC6CC(CC(C6)C4)C5)cccc3c2=O)CC1` [Compound 787], for which the inhibition at 0.1 µM is at least 75%.
With `O=C(CC12CC3CC(CC(C3)C1)C2)Nc1cccc2c1CCN(CCN1CCOCC1)C2=O` [Compound 817], the inhibition at 0.1 µM is at least 75%.
Still for that read-out and setting: the result for `O=C(CC12CC3CC(CC(C3)C1)C2)Nc1cccc2c(=O)n(Cc3cccc4c3OCCO4)ccc12` [Compound 769] reads at least 75%; that for `O=C(CC12CC3CC(CC(C3)C1)C2)Nc1cccc2c1CCN(Cc1ccc3c(c1)OCCO3)C2=O` [Compound 791], at least 75%.
In turn, `O=C(CC12CC3CC(CC(C3)C1)C2)Nc1cccc2c1CCN(Cc1ccccn1)C2=O` [Compound 795] displayed an inhibition at 0.1 µM of at least 75%.
In turn, `Cc1cc(CN2CCc3c(NC(=O)CC45CC6CC(CC(C6)C4)C5)cccc3C2=O)nn1C` [Compound 797] yielded an inhibition at 0.1 µM of at least 75%.
Molecule `NC(=O)CN1CCc2c(NC(=O)CC34CC5CC(CC(C5)C3)C4)cccc2C1=O` [Compound 828] had an inhibition at 0.1 µM of at least 75%.
As for `O=C(CC12CC3CC(CC(C3)C1)C2)Nc1cccc2c1CCN(C(CO)CO)C2=O` [Compound 827], the inhibition at 0.1 µM is at least 75%.
Still for that read-out and setting: the result for `CC12CC3CC(C)(C1)CC(CC(=O)Nc1cccc4c(=O)n(Cc5cn6ccccc6n5)ccc14)(C3)C2` [Compound 758] reads at least 75%.

The same test, now with this note: at 0.3 μM (plus symbols).
For `O=C(CC12CC3CC(CC(C3)C1)C2)Nc1cccc2c(=O)n(Cc3c(F)cccc3Cl)ccc12` [Compound 722], the inhibition at 0.3 µM was at least 75%.
Take `CN(C)c1ccc(Cn2ccc3c(NC(=O)CC45CC6CC(CC(C6)C4)C5)cccc3c2=O)cc1` [Compound 747]: the inhibition at 0.3 µM was at least 75%.
On the same count and under the same terms, the result for `O=C(CC12CC3CC(CC(C3)C1)C2)Nc1cccc2c(=O)n(CC3COCCO3)ccc12` (centres unmarked) [Compound 724] reads at least 75%; that for `O=C(CC12CC3CC(CC(C3)C1)C2)Nc1cccc2c(=O)n(Cc3ccccc3F)ccc12` [Compound 706], at least 75%; that for `CN1CCC(CN2CCc3c(NC(=O)CC45CC6CC(C)(CC(C)(C6)C4)C5)cccc3C2=O)CC1` [Compound 894], at least 75%.
Still for that read-out and setting: with `O=C(CC12CC3CC(CC(C3)C1)C2)Nc1cccc2c(=O)n(Cc3ccc(C(F)(F)F)cc3)ccc12` [Compound 713] the figure was at least 75%.
For the molecule `C[C@H](c1ccccc1)n1ccc2c(NC(=O)CC34CC5CC(CC(C5)C3)C4)cccc2c1=O` [Compound 721], the inhibition at 0.3 µM is at least 75%.
Still for that read-out and setting: with `Cc1nn(-c2ccccc2)nc1Cn1ccc2c(NC(=O)CC34CC5CC(CC(C5)C3)C4)cccc2c1=O` [Compound 738] the figure was at least 75%.
Same read-out and setting: the result for `CC12CC3CC(C)(C1)CC(CC(=O)Nc1cccc4c(=O)n(Cc5ccccn5)ccc14)(C3)C2` [Compound 744] reads at least 75%; that for `CC12CC3CC(C)(C1)CC(CC(=O)Nc1cccc4c(=O)n(Cc5ccccc5F)ccc14)(C3)C2` [Compound 743], at least 75%.
Turning to `O=C(CC12CC3CC(CC(C3)C1)C2)Nc1cccc2c1CCN(CC1CCCO1)C2=O` (centres unmarked) [Compound 726], the inhibition at 0.3 µM is at least 75%.

Source of the values: patent US20090170838A1, “Bicycloheteroaryl compounds as P2X7 modulators and uses thereof” (Renovis, Inc., priority 2005, published 2009).
